Data set [1] addresses T1, HIV-1 reverse transcriptase (Human immunodeficiency virus type 1 group M subtype B, UniProt P04585).
T1 construct: fixed-time assay for HIV-1 reverse transcriptase RNA dependent DNA polymerase activity; RT was purchased from Calbiochem; purchased Calbiochem CAL382129-500
Kind of data set: HIV-1 in vitro reverse transcriptase activity (fixed-time RNA dependent DNA polymerase assay). In kind it is biochemical. Particulars: residual RT activity, compound at 10 μM; RT activity without compound set at 100%. How it is done:
For the in vitro inhibition studies of the HIV-1 reverse transcriptase activity, stock solutions of the compounds of the present invention were prepared in dimethyl sulfoxide at a final concentration of 10 mM and kept at room temperature. Nevirapine was purchased from Boehringer Ingelheim. Efavirenz was received from the NIH AIDS Research and Reference Reagent Program.
In vitro inhibition studies used a fixed-time assay for HIV-1 reverse transcriptase RNA dependent DNA polymerase activity. RT was purchased from Calbiochem (ref CAL382129-500). One unit of RT corresponds to the amount of enzyme which incorporates one nanomole of [^3H]TTP in 10 minutes at 37° C.
Assays were performed in a final volume of 50 μl. […] Reaction mixtures were incubated at 37° C. for 10 min. The incorporation rate was determined by a standard trichloroacetic acid precipitation procedure (adapted from Current protocols in molecular biology. Eds Wiley, MGH Harvard medical school) and liquid scintillation counting using a Wallac scintillation counter.
The in vitro activity of the compounds, at a final concentration of 10 μM, on the reverse transcriptase (RT) activity of HIV-1 is derivable from the relative (%) reduction in RT activity. Hereby, the RT activity in the absence of any of the compounds is set at 100%.

Data set [2] relates to HIV-1 with WT (wild type) RT in P4 cells. Kind of data set: Anti-HIV assay on P4 cell line, WT RT. In kind it is cell-based. The procedure: (§1) For the antiviral and the cytotoxicity assays, the drugs were diluted in complete DMEM medium. In these experiments, drugs were diluted in triplicate wells in a 96-well plate in six, 5 fold serial dilutions.
Two days later, co-cultivation with SupT1 cells (a human T-cell lymphoma cell line) was initiated to facilitate rapid production of progeny virions. Production of virus was measured by using the Innotest HIV Antigen mAb p24 kit (Innogenetics). At the peak of production cultures were harvested and filtered. The virus stocks were stored at −80° C. until used.
Anti-HIV activity and cytotoxicity of the compounds were tested on a P4 cell line. […] The P4 cells were cultured in complete DMEM medium supplemented with 10% fetal bovine serum (FBS), 0.5% of Penicillin/Streptomycin and G418 at 0.5 mg/ml. Exponentially growing cells were trypsinized, centrifuged and split twice weekly at 5.10^4 cells/ml.
The P4 cells are HIV-infectible Hela-CD4 cells that carry the bacterial lacZ gene under the control of the HIV-1 long terminal repeat (LTR). In this cell line, transcription of the LacZ gene is driven by the HIV-1 LTR. […] In other words, in this system, the expression level of the β-galactosidase gene is proportional to the viral replication.
(§2) Briefly, in the anti-HIV assay 100 Ål of P4 cells were plated in 96-well plate at a concentration of 0.4 10^5 cells/ml and incubated at 37° C., 5% CO2. After 48 h, the medium was removed and 100 Ål of the different drugs dilutions were added to the cells. Four hours after the addition of the drugs all cells were infected with equal amount of cell-free virus, corresponding to 100 ng of HIV p24 antigen. After 48 h of incubation at 37° C., 5% CO2, β-galactosidase activity was measured using chlorophenol red-β-D-galactopyranoside assays.
Each assay was performed a minimum of three times. The 50% effective concentration (Ec50) was calculated from each dose response curve using the CurveExpert 1.3 software.

The nature of data set [3]: Cytotoxicity (CC50), MTT assay on P4 cells. Format: cell-based. Particulars: human. The procedure: as §1
(§3) The 50% cytotoxic concentration (CCso) was determined using a protocol adapted from Pauwels et al. (1988. J. Virol. Methods 20(4):309-21). Briefly, flat bottom 96-well plates were filled with 50 μl of complete medium containing 5.10^3 P4 cells. 2 hours later 50 μl of drug solution were added to the cells. Drugs (dissolved in DMEM, see above) were diluted in six, 5-fold serial dilutions from stock solutions in triplicate wells of a 96-well plate. Cells and compounds were incubated at 37° C. in growth medium for 3 days. Cell viability was determined by MTT assays using the Roche Cell Proliferation KIT. The absorbance (λ=570 nm) was measured on a Benchmark™ Microplate Reader (Biorad) and compared with 12 cell control replicates (no drug added). Each assay was performed at least three times for a total of at least nine replicate wells. This method detects both cytostatic and cytolytic effects of drugs.
(Tetrazolium assays rely on reduction of a dye to a coloured formazan, in cell work by metabolically active cells.)

A further data set deals with P4 cells. As to the kind of experiment: Cytotoxicity (CC50), MTT assay on P4 cells. Format: cell-based. Particulars: 3 days. The procedure:
as §1, §3

Data set [4] concerns HIV-1 mutant Cys188RT in P4 cells. As to the kind of experiment: Anti-HIV assay on P4 cells, Cys188RT mutant. Format: cell-based.
Excerpt: In order to introduce mutation(s) at the level of the pol gene coding for the RT in the pNL4-3 plasmid containing the complete viral genome (Adachi et al., 1986. J. Virol., Vol. 59 p 284-291) we used the “Quick change mutagenesis kit” (Stratagene). The following mutations were separately introduced in pNL4-3: L100I, K103N, V108I, Y181C, Y188C, and the double mutations K103N/V108I. These mutations were chosen because of the resistance that they confer to existing NNRTI. The production procedure of the mutant viral stocks is identical to the one described above.
Anti-HIV activity and cytotoxicity of the compounds were tested on a P4 cell line. The P4 cell line (Clavel & Charneau, 1994. J. Virol., Vol. 68 p 1179-1185) was provided by Dr. François Clavel (Unité de recherche antivirale de l'hôpital Xavier Bichat Paris: Inserm). The P4 cells were cultured in complete DMEM medium supplemented with 10% fetal bovine serum (FBS), 0.5% of Penicillin/Streptomycin and G418 at 0.5 mg/ml. Exponentially growing cells were trypsinized, centrifuged and split twice weekly at 5.10^4 cells/ml.
The P4 cells are HIV-infectible Hela-CD4 cells that carry the bacterial lacZ gene under the control of the HIV-1 long terminal repeat (LTR). In this cell line, transcription of the LacZ gene is driven by the HIV-1 LTR. As such, the cytoplasmic accumulation of β-galactosidase is strictly dependent on the presence of the HIV transactivator Tat produced during the intracellular viral replication (Clavel & Charneau, 1994. J. Virol., Vol. 68, p. 1179-1185). In other words, in this system, the expression level of the β-galactosidase gene is proportional to the viral replication.
as §2
The absorbance was measured on a Benchmark™ Microplate Reader (Biorad) (λ=570 nm) and compared with 12 cell control replicates (no virus or drug added) and 12 virus control wells (no drug added). Each assay was performed a minimum of three times. The 50% effective concentration (Ec50) was calculated from each dose response curve using the CurveExpert 1.3 software. As Nevirapine activity corresponds to its published values (10-100 nM), the data are consistent with other measures of viral replication.

[5] abbreviates: P4 cell line, WT RT, read-out: EC50 WT.
Setting [6] is: Human immunodeficiency virus 1, P4 cell line, WT RT, read-out: EC50 WT.
[7] abbreviates: Table 8, effect of the R2 substituent, cell line not given, read-out: EC50 WT.
Setting [8] is: Table 8, effect of the R2 substituent, cell line not given, read-out: EC50 Cys188RT.

Where two headings read alike, the source gives them in different places. Bounds are passed on as bounds.

One may read the EC50 as the concentration that produces a half-maximal response. By CC50 is commonly meant the concentration giving 50% cytotoxicity. A lower CC50 goes with greater toxicity to the cells. For orientation: melting point means the temperature, or range, at which the solid turns liquid. `CCOC(=O)c1c(OC(=O)C=C(C)C)c(CC)c(C)[nH]c1=O` [M18, ethyl 5-ethyl-6-methyl-4-[(3-methylbut-2-enoyl)oxy]-2-oxo-1,2-dihydropyridine-3-carboxylate] returned a melting point of 166 °C. Also, the “Relative (%) RT activity in vitro (compound added at 10 μM)” value (from here on “Relative (%) RT activity in vitro”) in data set [1] is on record as 70.8%. Further, the EC50 in data set [2] (Human immunodeficiency virus 1, read-out: EC50 WT) turned out to be 5.82 µM. The “SI (selectivity index = CC50/EC50)” value in data set [2] (P4 cell line, WT RT) is above 17. This molecule yielded a CC50 at 3 days in data set [3] above 100 µM.

On to `CCOC(=O)c1c(OC2CCCC(C)C2)c(CC)c(C)[nH]c1=O` (stereo not shown) [Z30], for which the “Relative (%) RT activity in vitro” value in data set [1] is 22.0%. The EC50 in data set [2] (setting [5]) worked out at 0.52 µM. In addition, in the data set on P4 cells, the half-maximal cytotoxic concentration (CC50) is above 100 µM.

In the case of `CCOC(=O)c1c(OC2CCCCC2Cl)c(CC)c(C)[nH]c1=O` (stereo not shown) [Z12], the “Relative (%) RT activity in vitro” value in data set [1] worked out at 63.7%. Further, the EC50 in data set [2] (setting [5]) was found to be 3.09 µM. This molecule also registered a CC50 with P4 cells above 100 µM.

The molecule `CCOC(=O)c1c(OC2CC(C)CC(C)C2)c(CC)c(C)[nH]c1=O` (stereo not shown) [Z37, ethyl 4-[(3,5-dimethylcyclohexyl)oxy]-5-ethyl-6-methyl-pyridine-2(1H)-one-3-carboxylate] returned a melting point of 108 °C. For the same molecule, the “Relative (%) RT activity in vitro” value in data set [1] was 8.3%. Further, the EC50 in data set [2] (setting [6]) was found to be 0.043 µM. In addition, in data set [2] (P4 cell line, WT RT), the “SI (selectivity index = CC50/EC50)” value is 1349. In data set [3], the CC50 at 3 days amounted to 58 µM. In addition, the “activity on Cys188 mutant strains compared with the cyclohexyl derivative” value in data set [4] is given as “more active on Cys188 mutant strains than the cyclohexyl derivative”. In addition, the EC50 in data set [4] (Human immunodeficiency virus 1, read-out: EC50 Cys188RT) was determined as 0.006 µM.

Take `CCc1c(C)[nH]c(=O)c(COC(=O)CCl)c1OC1CCCCCC1` [Z33, [4-(cycloheptyloxy)-5-ethyl-6-methyl-2-oxo-1,2-dihydropyridin-3-yl]methyl chloroacetate]: the melting point was 123 °C. In addition, the “Relative (%) RT activity in vitro” value in data set [1] was 42.0%. The EC50 in data set [2] (setting [6]) was found to be 1.03 µM. The “SI (selectivity index = CC50/EC50)” value in data set [2] (P4 cell line, WT RT) stood at 52. In data set [3], this molecule displayed a CC50 at 3 days of 54 µM.

Take `CCOC(=O)c1c(OC2CCCCCC2)c(CC)c(C)[nH]c1=O` [Z25]: the “Relative (%) RT activity in vitro” value in data set [1] turned out to be 34.6%. Further, the EC50 in data set [2] (setting [5]) amounted to 0.48 µM; in data set [2] (setting [7]), 0.48 µM; in data set [4] (setting [8]) it was 3.28 µM. For the same molecule, the CC50 in the data set on P4 cells came out at 81 µM. In addition, the “activity on Cys188 mutant strains compared with the cyclohexyl derivative” value in data set [4] is “more active on Cys188 mutant strains than the cyclohexyl derivative”.

Regarding `CCOC(=O)c1c(OC2CC(C)CC(C)C2)c(CC)c(C)[nH]c1=O` (single isomer, unassigned) [Z37A], the “Relative (%) RT activity in vitro” value in data set [1] was 7.6%. The EC50 in data set [2] (setting [5]) came out at 0.24 µM. Besides, in the data set with P4 cells, the CC50 worked out at 63 µM.

Regarding `CCOC(=O)c1c(OC2CCC(CC)CC2)c(CC)c(C)[nH]c1=O` (stereo not shown) [Z55], the “Relative (%) RT activity in vitro” value in data set [1] came out at 40.3%.

For `CCOC(=O)c1c(OC2CCCCCCC2)c(CC)c(C)[nH]c1=O` [Z54], the “Relative (%) RT activity in vitro” value in data set [1] was found to be 24%. Moreover, the EC50 in data set [2] (setting [5]) turned out to be 1.35 µM. The molecule further showed a CC50 with P4 cells of 58 µM.

Turning to `CCOC(=O)c1c(OC2CCCCC2)c(CC)c(C)[nH]c1=O` [reference compound], the values for the concentration for a half-maximal effect (EC50) in data set [2] (setting [7]) and in data set [4] (setting [8]) were 0.77 µM and 6.5 µM, respectively.

`CCc1c(C)[nH]c(=O)c(CO)c1OC1CCCCCC1` [Z32, 4-(cycloheptyloxy)-3-(hydroxymethyl)-5-ethyl-6-methylpyridin-2(1H)-one] returned a melting point of 146 °C. For the same molecule, the “Relative (%) RT activity in vitro” value in data set [1] is recorded as 44.0%. Besides, the EC50 in data set [2] (setting [6]) was determined as 1.16 µM. Moreover, the “SI (selectivity index = CC50/EC50)” value in data set [2] (P4 cell line, WT RT) amounted to 47. Also, half-maximal cytotoxicity in data set [3] (CC50 at 3 days) was put at 55 µM.

For the molecule `CCOC(=O)c1c(OC2CCCC2)c(CC)c(C)[nH]c1=O` [reference compound], in data set [2] (setting [7]), the EC50 came out at 1.91 µM.

As to `CCc1c(C)[nH]c(=O)c(N)c1OC1CC(C)CC(C)C1` (stereo not shown) [Z96inv], the “Relative (%) RT activity in vitro” value in data set [1] turned out to be 25.4%.

Take `CCc1c(C)[nH]c(=O)c(C(=O)OCCN(CC)CC)c1OC1CC(C)CC(C)C1` (stereo not shown) [Z53]: in data set [1], the “Relative (%) RT activity in vitro” value is listed as 34.3%.

These data come from patent publication US20070275953A1 (priority 2003, published 2007).
